Results: article PMC5218480 (PLoS ONE, 2017)

System: MV-4-11 cells
Experiment: Gene expression microarray analysis (Affymetrix PrimeView) and GSEA
Format: cell-based, human
Design: RFU PODN (11730768_x_at) / Fold change /veh PODN (11730768_x_at) / RFU LINC00158 (11744669_a_at) / Fold change /veh LINC00158 (11744669_a_at) / RFU DUSP10 (11751237_a_at) / Fold change /veh DUSP10 (11751237_a_at) / RFU ID3 (11757404_x_at) / Fold change /veh ID3 (11757404_x_at) / RFU PLEKHG5 (11737974_s_at) / Fold change /veh PLEKHG5 (11737974_s_at) / RFU LRRC4B (11730491_at) / Fold change /veh LRRC4B (11730491_at) / RFU GIMAP4 (11747438_a_at) / Fold change /veh GIMAP4 (11747438_a_at) / RFU KRT8 (11758183_x_at) / Fold change /veh KRT8 (11758183_x_at) / RFU CNN1 (11734310_a_at) / Fold change /veh CNN1 (11734310_a_at) / RFU VPS37D (11726825_at) / Fold change /veh VPS37D (11726825_at) / RFU C10orf10 (11716522_x_at) / Fold change /veh C10orf10 (11716522_x_at) / RFU KIR2DL2 /// KIR2DL4 /// KIR2DL5A /// KIR2DL5B /// KIR2DS1 /// KIR2DS2 /// KIR2DS3 /// KIR2DS4 /// KIR3DL3 /// KIR3DL3 /// KIR3DS1 (11738374_at) / Fold change /veh KIR2DL2 /// KIR2DL4 /// KIR2DL5A /// KIR2DL5B /// KIR2DS1 /// KIR2DS2 /// KIR2DS3 /// KIR2DS4 /// KIR3DL3 /// KIR3DL3 /// KIR3DS1 (11738374_at) / RFU C1QL1 (11718748_at) / Fold change /veh C1QL1 (11718748_at) / RFU TMPRSS4 (11747572_a_at) / Fold change /veh TMPRSS4 (11747572_a_at) / RFU HAMP (11756126_x_at) / Fold change /veh HAMP (11756126_x_at) / RFU RNFT2 (11725882_a_at) / Fold change /veh RNFT2 (11725882_a_at) / RFU NR4A2 (11747474_a_at) / Fold change /veh NR4A2 (11747474_a_at) / RFU ABCC12 (11746883_a_at) / Fold change /veh ABCC12 (11746883_a_at) / RFU TMEM136 (11760407_x_at) / Fold change /veh TMEM136 (11760407_x_at) / RFU CLDN22 /// WWC2 (11732394_at) / Fold change /veh CLDN22 /// WWC2 (11732394_at) / RFU HLA-DPB1 (11760878_x_at) / Fold change /veh HLA-DPB1 (11760878_x_at) / RFU SPINT1 (11716480_a_at) / Fold change /veh SPINT1 (11716480_a_at) / RFU GAP43 (11754022_s_at) / Fold change /veh GAP43 (11754022_s_at) / RFU A4GNT (11735810_at) / Fold change /veh A4GNT (11735810_at) / RFU PRB3 (11715151_x_at) / Fold change /veh PRB3 (11715151_x_at) / RFU TUBB4B (11761932_at) / Fold change /veh TUBB4B (11761932_at) / RFU CAPN14 (11732068_a_at) / Fold change /veh CAPN14 (11732068_a_at) / RFU TMCC2 (11721928_a_at) / Fold change /veh TMCC2 (11721928_a_at) / RFU IRGQ (11745062_a_at) / Fold change /veh IRGQ (11745062_a_at) / RFU FAM174B (11720279_a_at) / Fold change /veh FAM174B (11720279_a_at) / RFU TMPRSS4 (11748680_a_at) / Fold change /veh TMPRSS4 (11748680_a_at) / RFU FAM212B (11763350_a_at) / Fold change /veh FAM212B (11763350_a_at) / RFU PLEKHG5 (11743358_a_at) / Fold change /veh PLEKHG5 (11743358_a_at) / RFU ZSCAN30 (11745921_a_at) / Fold change /veh ZSCAN30 (11745921_a_at) / RFU CMKLR1 (11741424_a_at) / Fold change /veh CMKLR1 (11741424_a_at) / RFU LOC101060620 /// MAPK8IP1 (11723275_at) / Fold change /veh LOC101060620 /// MAPK8IP1 (11723275_at) / RFU SPTSSB (11747773_x_at) / Fold change /veh SPTSSB (11747773_x_at) / RFU PRSS12 (11739890_at) / Fold change /veh PRSS12 (11739890_at) / RFU BIN1 (11741810_x_at) / Fold change /veh BIN1 (11741810_x_at) / RFU WNT11 (11732464_a_at) / Fold change /veh WNT11 (11732464_a_at) / RFU C10orf10 (11716521_a_at) / Fold change /veh C10orf10 (11716521_a_at) / RFU C5orf56 (11738089_at) / Fold change /veh C5orf56 (11738089_at) / RFU CYB561 (11721691_x_at) / Fold change /veh CYB561 (11721691_x_at) / RFU ANKRD19P (11752326_a_at) / Fold change /veh ANKRD19P (11752326_a_at) / RFU OR2T12 /// OR2T33 /// OR2T8 (11738714_s_at) / Fold change /veh OR2T12 /// OR2T33 /// OR2T8 (11738714_s_at) / RFU VCAN (11748164_a_at) / Fold change /veh VCAN (11748164_a_at) / RFU JSRP1 (11732532_at) / Fold change /veh JSRP1 (11732532_at) / RFU KRTAP10-11 (11738290_x_at) / Fold change /veh KRTAP10-11 (11738290_x_at) / RFU MYO3A (11730013_a_at) / Fold change /veh MYO3A (11730013_a_at) / RFU EBF3 (11725865_a_at) / Fold change /veh EBF3 (11725865_a_at) / RFU CAMK2N1 (11719241_x_at) / Fold change /veh CAMK2N1 (11719241_x_at) / RFU C5orf56 (11738088_a_at) / Fold change /veh C5orf56 (11738088_a_at) / RFU OLFML3 (11715873_a_at) / Fold change /veh OLFML3 (11715873_a_at) / RFU LOC100653217 /// NTM (11731650_a_at) / Fold change /veh LOC100653217 /// NTM (11731650_a_at) / RFU MAPK11 (11762145_a_at) / Fold change /veh MAPK11 (11762145_a_at) / RFU FIZ1 (11724087_x_at) / Fold change /veh FIZ1 (11724087_x_at) / RFU OASL (11726364_x_at) / Fold change /veh OASL (11726364_x_at) / RFU SOX15 (11748057_x_at) / Fold change /veh SOX15 (11748057_x_at) / RFU CD79A (11719716_a_at) / Fold change /veh CD79A (11719716_a_at) / RFU HIST1H1D (11736915_at) / Fold change /veh HIST1H1D (11736915_at) / RFU CASKIN2 (11723855_a_at) / Fold change /veh CASKIN2 (11723855_a_at) / RFU LOC730098 (11760151_x_at) / Fold change /veh LOC730098 (11760151_x_at) / RFU OR4N2 (11742367_at) / Fold change /veh OR4N2 (11742367_at) / RFU PRRT2 (11749266_a_at) / Fold change /veh PRRT2 (11749266_a_at) / RFU SNX32 (11753110_a_at) / Fold change /veh SNX32 (11753110_a_at) / RFU CDHR5 (11726645_a_at) / Fold change /veh CDHR5 (11726645_a_at) / RFU RCAN1 (11760418_a_at) / Fold change /veh RCAN1 (11760418_a_at) / RFU FAM167A (11723789_a_at) / Fold change /veh FAM167A (11723789_a_at) / RFU FAM26E (11764081_at) / Fold change /veh FAM26E (11764081_at) / RFU ISYNA1 (11749810_s_at) / Fold change /veh ISYNA1 (11749810_s_at) / RFU ACY1 (11761880_at) / Fold change /veh ACY1 (11761880_at) / RFU 11764098_at / Fold change /veh 11764098_at / RFU SAMD14 (11745864_x_at) / Fold change /veh SAMD14 (11745864_x_at) / RFU NPB (11741838_a_at) / Fold change /veh NPB (11741838_a_at) / RFU TMPRSS6 (11731388_a_at) / Fold change /veh TMPRSS6 (11731388_a_at) / RFU KRTAP10-2 (11738614_at) / Fold change /veh KRTAP10-2 (11738614_at) / RFU ARHGAP8 /// PRR5-ARHGAP8 (11727945_x_at) / Fold change /veh ARHGAP8 /// PRR5-ARHGAP8 (11727945_x_at) / RFU KRTAP5-7 /// NADSYN1 (11734609_at) / Fold change /veh KRTAP5-7 /// NADSYN1 (11734609_at) / RFU RASL12 (11751679_a_at) / Fold change /veh RASL12 (11751679_a_at) / RFU CDKN2B (11736163_a_at) / Fold change /veh CDKN2B (11736163_a_at) / RFU PRF1 (11729649_at) / Fold change /veh PRF1 (11729649_at) / RFU, ZNF638 /// ZNF638-IT1 / Fold change vs veh, ZNF638 /// ZNF638-IT1 / RFU, PANK3 / Fold change vs veh, PANK3 / RFU, SH3YL1 / Fold change vs veh, SH3YL1 / RFU, ZEB2 / Fold change vs veh, ZEB2 / RFU, NRIP1 / Fold change vs veh, NRIP1 / RFU, PTTG1IP / Fold change vs veh, PTTG1IP / RFU, CAPN2 / Fold change vs veh, CAPN2 / RFU, MED14 / Fold change vs veh, MED14 / RFU, SNORA58 / Fold change vs veh, SNORA58 / RFU, C1orf63 / Fold change vs veh, C1orf63 / RFU, LRRFIP1 / Fold change vs veh, LRRFIP1 / RFU, NDUFAF7 / Fold change vs veh, NDUFAF7 / RFU, SLC12A2 / Fold change vs veh, SLC12A2 / RFU, IBTK / Fold change vs veh, IBTK / RFU, ESF1 / Fold change vs veh, ESF1 / Fold change vs veh, TMEM50B / RFU, TAOK1 / Fold change vs veh, TAOK1 / RFU, ACBD3 / Fold change vs veh, ACBD3 / RFU, TMA16 / Fold change vs veh, TMA16 / RFU, RWDD3 / Fold change vs veh, RWDD3 / RFU, BCAT1 / Fold change vs veh, BCAT1 / RFU, EDEM3 / Fold change vs veh, EDEM3 / RFU, TMEM33 / Fold change vs veh, TMEM33 / RFU, WDR75 / Fold change vs veh, WDR75 / RFU, AHCTF1 / Fold change vs veh, AHCTF1 / RFU, TFRC / Fold change vs veh, TFRC / RFU, ZDHHC17 / Fold change vs veh, ZDHHC17 / RFU, NOM1 / Fold change vs veh, NOM1 / RFU, ARL8B / Fold change vs veh, ARL8B / RFU, ZBTB11 / Fold change vs veh, ZBTB11 / RFU, TAMM41 / Fold change vs veh, TAMM41 / RFU, KIAA1704 /// LOC100996395 / Fold change vs veh, KIAA1704 /// LOC100996395 / RFU, ING1 / Fold change vs veh, ING1 / RFU, TRMT61B / Fold change vs veh, TRMT61B / RFU, FUBP3 / Fold change vs veh, FUBP3 / RFU, TP53 / Fold change vs veh, TP53 / RFU, TNKS2 / Fold change vs veh, TNKS2 / RFU, ZFP14 / Fold change vs veh, ZFP14 / RFU, ACTR2 / Fold change vs veh, ACTR2 / RFU, PPP3R1 / Fold change vs veh, PPP3R1 / RFU, PIK3R1 / Fold change vs veh, PIK3R1 / RFU, HNRNPA1 / Fold change vs veh, HNRNPA1 / RFU, RNF170 / Fold change vs veh, RNF170 / RFU, ZNF28 / Fold change vs veh, ZNF28 / RFU, RNGTT / Fold change vs veh, RNGTT / RFU, OGT / Fold change vs veh, OGT / RFU, BRD1 / Fold change vs veh, BRD1 / RFU, MARS / Fold change vs veh, MARS / RFU, ZNF655 / Fold change vs veh, ZNF655 / RFU, FAHD1 / Fold change vs veh, FAHD1 / RFU, BDP1 / Fold change vs veh, BDP1 / RFU, LRRCC1 / Fold change vs veh, LRRCC1 / RFU, ARID1A / Fold change vs veh, ARID1A / RFU, ZNF146 / Fold change vs veh, ZNF146 / RFU, ZNF330 / Fold change vs veh, ZNF330 / RFU, GPN3 / Fold change vs veh, GPN3 / RFU, C9orf123 / Fold change vs veh, C9orf123 / RFU, N4BP2L2 / Fold change vs veh, N4BP2L2 / RFU, ARFIP1 / Fold change vs veh, ARFIP1 / RFU, FAM179B / Fold change vs veh, FAM179B / RFU, BCL10 / Fold change vs veh, BCL10 / RFU, UHRF1BP1L / Fold change vs veh, UHRF1BP1L / RFU, BET1 / Fold change vs veh, BET1 / RFU, CNOT2 / Fold change vs veh, CNOT2 / RFU, ZNF268 / Fold change vs veh, ZNF268 / Fold change vs veh, ZNF507 / RFU, DGCR2 / Fold change vs veh, DGCR2 / RFU, WDSUB1 / Fold change vs veh, WDSUB1 / Fold change vs veh, HSP90B1 /// MIR3652 / RFU, ADSS / Fold change vs veh, ADSS / RFU, GK / Fold change vs veh, GK / RFU, ZNF148 / Fold change vs veh, ZNF148 / RFU, TAF9 / Fold change vs veh, TAF9 / RFU, SLC1A5 / Fold change vs veh, SLC1A5 / RFU, SLMO2 / Fold change vs veh, SLMO2 / RFU, ABCC4 / Fold change vs veh, ABCC4 / RFU, LOC101060439 /// RAP1B / Fold change vs veh, LOC101060439 /// RAP1B / RFU, RFX7 / Fold change vs veh, RFX7 / RFU, GTPBP10 / Fold change vs veh, GTPBP10 / RFU, CNEP1R1 / Fold change vs veh, CNEP1R1 / RFU, BIVM-ERCC5 /// ERCC5 / Fold change vs veh, BIVM-ERCC5 /// ERCC5 / RFU, ILF3 / Fold change vs veh, ILF3 / RFU 11762660_at / Fold change /veh 11762660_at / RFU VCAN (11757783_s_at) / Fold change /veh VCAN (11757783_s_at) / RFU DDX43 (11728927_at) / Fold change /veh DDX43 (11728927_at) / RFU KRT8 (11758188_x_at) / Fold change /veh KRT8 (11758188_x_at) / RFU NKD1 (11759106_at) / Fold change /veh NKD1 (11759106_at) / RFU SRD5A1 (11742802_a_at) / Fold change /veh SRD5A1 (11742802_a_at) / RFU TPSAB1 /// TPSB2 (11721975_s_at) / Fold change /veh TPSAB1 /// TPSB2 (11721975_s_at) / RFU GSTM3 (11746129_a_at) / Fold change /veh GSTM3 (11746129_a_at) / RFU IL23R (11737362_x_at) / Fold change /veh IL23R (11737362_x_at) / RFU TMEM51 (11727254_a_at) / Fold change /veh TMEM51 (11727254_a_at) / RFU PIWIL2 (11732686_x_at) / Fold change /veh PIWIL2 (11732686_x_at) / RFU ORM1 (11744905_x_at) / Fold change /veh ORM1 (11744905_x_at) / RFU CCDC152 (11743942_at) / Fold change /veh CCDC152 (11743942_at) / RFU ECM1 (11717891_a_at) / Fold change /veh ECM1 (11717891_a_at) / RFU IL23R (11748794_a_at) / Fold change /veh IL23R (11748794_a_at) / RFU TNFAIP8L3 (11732012_x_at) / Fold change /veh TNFAIP8L3 (11732012_x_at) / RFU MBOAT4 (11741988_at) / Fold change /veh MBOAT4 (11741988_at) / RFU 11764193_at / Fold change /veh 11764193_at / RFU TMEM53 (11763286_at) / Fold change /veh TMEM53 (11763286_at) / RFU MAGEB2 (11727129_at) / Fold change /veh MAGEB2 (11727129_at) / RFU TMEM200A (11744735_a_at) / Fold change /veh TMEM200A (11744735_a_at) / RFU CCDC152 (11751479_a_at) / Fold change /veh CCDC152 (11751479_a_at) / RFU FAM211A (11726209_a_at) / Fold change /veh FAM211A (11726209_a_at) / RFU RGS16 (11746705_a_at) / Fold change /veh RGS16 (11746705_a_at) / RFU VCAN (11755009_s_at) / Fold change /veh VCAN (11755009_s_at) / RFU RHOB (11743442_s_at) / Fold change /veh RHOB (11743442_s_at) / RFU RGS16 (11720943_a_at) / Fold change /veh RGS16 (11720943_a_at) / RFU RGS16 (11720944_at) / Fold change /veh RGS16 (11720944_at) / RFU, VPS4B / Fold change vs veh, VPS4B / RFU, CREB1 / Fold change vs veh, CREB1 / RFU, DNAJC13 / Fold change vs veh, DNAJC13 / RFU, GNAQ / Fold change vs veh, GNAQ / RFU, CDK5R1 / Fold change vs veh, CDK5R1 / RFU, ZRANB3 / Fold change vs veh, ZRANB3 / RFU, CUL4A / Fold change vs veh, CUL4A / RFU, CCNY / Fold change vs veh, CCNY / RFU, UFL1 / Fold change vs veh, UFL1 / RFU, COG3 / Fold change vs veh, COG3 / RFU, DIAPH2 / Fold change vs veh, DIAPH2 / RFU, SKA2 / Fold change vs veh, SKA2 / RFU, AFF3 / Fold change vs veh, AFF3 / RFU, LMF1 / Fold change vs veh, LMF1 / RFU, IPO11 / Fold change vs veh, IPO11 / RFU, DFFB / Fold change vs veh, DFFB / RFU, FOXP1 / Fold change vs veh, FOXP1 / RFU, CARD8 / Fold change vs veh, CARD8 / RFU, STRN3 / Fold change vs veh, STRN3 / RFU, ADK / Fold change vs veh, ADK / RFU, RASSF2 / Fold change vs veh, RASSF2 / RFU, WIPF1 / Fold change vs veh, WIPF1 / RFU, LARP1B / Fold change vs veh, LARP1B / RFU, RASA1 / Fold change vs veh, RASA1 / RFU, RB1 / Fold change vs veh, RB1 / RFU, PPFIA1 / Fold change vs veh, PPFIA1 / RFU, MAT2A / Fold change vs veh, MAT2A / RFU, CCT5 / Fold change vs veh, CCT5 / RFU, WDR92 / Fold change vs veh, WDR92 / RFU, CUX1 / Fold change vs veh, CUX1 / RFU, TTC7A / Fold change vs veh, TTC7A / RFU, TMEM135 / Fold change vs veh, TMEM135 / RFU, DEPTOR / Fold change vs veh, DEPTOR / RFU, CPM / Fold change vs veh, CPM / RFU, DNAJB6 / Fold change vs veh, DNAJB6 / RFU, CACNA2D3 / Fold change vs veh, CACNA2D3 / RFU, DTX4 / Fold change vs veh, DTX4 / RFU, TFCP2 / Fold change vs veh, TFCP2 / RFU, GMCL1 /// GMCL1P1 / Fold change vs veh, GMCL1 /// GMCL1P1 / RFU, AEBP2 / Fold change vs veh, AEBP2 / RFU, SNHG1 /// SNORD22 /// SNORD25 /// SNORD26 /// SNORD27 /// SNORD28 /// SNORD29 /// SNORD31 / Fold change vs veh, SNHG1 /// SNORD22 /// SNORD25 /// SNORD26 /// SNORD27 /// SNORD28 /// SNORD29 /// SNORD31 / Fold change (Aza/veh), C12orf56 (ProbeSet 11735607_a_at) / Fold change (ACY-1035/veh), C12orf56 (ProbeSet 11735607_a_at) / Fold change (Aza/veh), FGFR1OP (ProbeSet 11751329_s_at) / Fold change (ACY-1035/veh), FGFR1OP (ProbeSet 11751329_s_at) / Fold change (Aza/veh), VPS36 (ProbeSet 11739960_a_at) / Fold change (ACY-1035/veh), VPS36 (ProbeSet 11739960_a_at) / RFU SYPL1 (11715823_x_at) / Fold change /veh SYPL1 (11715823_x_at) / RFU IGFBP7 (11715501_s_at) / Fold change /veh IGFBP7 (11715501_s_at) / RFU REEP3 (11722064_at) / Fold change /veh REEP3 (11722064_at) / RFU IGLL1 (11728026_x_at) / Fold change /veh IGLL1 (11728026_x_at): dose or concentration left out as unconfirmed
Conditions: ProbeSet 11716331_a_at; LIST D

For `Nc1ccc(-c2cccs2)cc1NC(=O)c1ccc2c(c1)cc(C1CC1)n2CCN1CCOCC1` [ACY-1035], the “RFU, DNAJB6” value was 348.58 RFU.
